In PubChem BioAssay (NCI):
Where “and” joins values, the source holds several entries; their conditions need not be identical. Equal values may be shown once.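 Test compounds were applied to cells in 96-well plates for 48 hours at 5 doses. The concentration for 50% growth inhibition is given as GI50. TGI denotes the concentration required for complete inhibition of growth.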

Experiments:
Assay in all cases: growth of human tumour cells (NCI), 48 h
DU-145 prostate = system: DU-145 prostate
HOP-62 NSCLC = system: HOP-62 NSCLC
HOP-92 NSCLC = system: HOP-92 NSCLC
IGROV1 ovarian = system: IGROV1 ovarian
OVCAR-3 ovarian = system: OVCAR-3 ovarian
SF-539 CNS = system: SF-539 CNS
SN12C renal = system: SN12C renal
SNB-19 CNS = system: SNB-19 CNS
SNB-75 CNS = system: SNB-75 CNS
SW-620 colon = system: SW-620 colon

## CCOC(=O)c1cccc(NC(=O)CCl)c1
DU-145 prostate
  TGI: 22.7 µM
HOP-62 NSCLC
  TGI: 6.15 µM
HOP-92 NSCLC
  TGI: 16.9 µM
IGROV1 ovarian
  TGI: 8.11 µM
OVCAR-3 ovarian
  TGI: 4.44 µM
SF-539 CNS
  TGI: 5.78 µM
SN12C renal
  TGI: 4.6 µM
SNB-19 CNS
  TGI: > 92.8 µM
SNB-75 CNS
  TGI: 9.22 µM
SW-620 colon
  TGI: 16.5 µM

## CC[n+]1cnc(N)c2c(-c3ccc(Cl)cc3)cn(-c3ccc(C)cc3)c21
DU-145 prostate
  TGI: 31.8 µM
HOP-62 NSCLC
  TGI: 30.5 µM
HOP-92 NSCLC
  TGI: 24.7 µM
IGROV1 ovarian
  TGI: 26.5 µM
OVCAR-3 ovarian
  TGI: 21.6 µM
SF-539 CNS
  TGI: 28.5 µM
SN12C renal
  TGI: 25.2 µM
SNB-19 CNS
  TGI: 28.8 µM
SNB-75 CNS
  TGI: 14.1 µM
SW-620 colon
  TGI: 30.5 µM

## CCCCNC1CCC2(SCCS2)c2[nH]c3ccccc3c21 (stereo not drawn)
DU-145 prostate
  TGI: > 93.8 µM
HOP-62 NSCLC
  TGI: > 100 µM
HOP-92 NSCLC
  TGI: > 81.9 µM
IGROV1 ovarian
  TGI: > 100 µM
OVCAR-3 ovarian
  TGI: 46.7 µM
SF-539 CNS
  TGI: 31.6 µM
SN12C renal
  TGI: > 100 µM
SNB-19 CNS
  TGI: > 100 µM
SNB-75 CNS
  TGI: > 100 µM
SW-620 colon
  TGI: > 82.6 µM

## c1ccc(CNC2CC(NCc3ccccn3)CC(NCc3ccccn3)C2)nc1 (stereo not drawn)
DU-145 prostate
  TGI: 8.52 µM and 17.1 µM
HOP-62 NSCLC
  TGI: 20.8 µM and 20.4 µM and 23 µM
HOP-92 NSCLC
  TGI: 9.06 µM and 8.87 µM and 15.2 µM
IGROV1 ovarian
  TGI: 10.1 µM and 11.1 µM and 22.5 µM
OVCAR-3 ovarian
  GI50: 4.59 µM
  TGI: 9.72 µM and 12.1 µM and 15.9 µM
SF-539 CNS
  GI50: 1.98 µM and 4.74 µM and 3.22 µM
  TGI: 10.1 µM and 10.7 µM and 15.7 µM
SN12C renal
  TGI: 20.8 µM and 13.6 µM and 17.7 µM
SNB-19 CNS
  GI50: 3420 nM and 1640 nM and 1960 nM
  TGI: 11.7 µM and 5.64 µM and 3.83 µM
SNB-75 CNS
  TGI: 9.59 µM and 16 µM
SW-620 colon
  TGI: 41.7 µM and 25 µM and 32.9 µM

## Clc1ccc2c(SCC3CO3)c3ccccc3nc2c1 (stereo not drawn)
DU-145 prostate
  TGI: 2.95 µM
HOP-62 NSCLC
  TGI: 17.6 µM
HOP-92 NSCLC
  TGI: 5.08 µM
IGROV1 ovarian
  TGI: 2.9 µM
OVCAR-3 ovarian
  TGI: 3.27 µM
SF-539 CNS
  TGI: 7.11 µM
SN12C renal
  TGI: 7.35 µM
SNB-19 CNS
  TGI: 15.3 µM
SNB-75 CNS
  TGI: 60.5 µM
SW-620 colon
  TGI: 5.24 µM

## Cc1ccc(C2CC(=O)CC(c3ccc(C)cc3)C23C(=O)NC(=O)NC3=O)cc1 (stereo not drawn)
DU-145 prostate
  TGI: > 100 µM
HOP-62 NSCLC
  TGI: > 100 µM
HOP-92 NSCLC
  TGI: > 100 µM
IGROV1 ovarian
  TGI: > 100 µM
OVCAR-3 ovarian
  TGI: > 100 µM
SF-539 CNS
  TGI: > 100 µM
SN12C renal
  TGI: > 100 µM
SNB-19 CNS
  TGI: > 100 µM
SNB-75 CNS
  TGI: > 100 µM
SW-620 colon
  TGI: > 100 µM

## CCC(C)[C@H](NC(=O)[C@H](Cc1ccccc1)NC(=O)N(CC)c1ccccc1)C(=O)N[C@@H](CC(C)C)C(=O)OC (stereo partly drawn)
DU-145 prostate
  TGI: > 100 µM
HOP-62 NSCLC
  TGI: > 100 µM
HOP-92 NSCLC
  TGI: > 100 µM
IGROV1 ovarian
  TGI: 61.5 µM
OVCAR-3 ovarian
  TGI: > 100 µM
SF-539 CNS
  TGI: 93.8 µM
SN12C renal
  TGI: > 100 µM
SNB-19 CNS
  TGI: > 100 µM
SNB-75 CNS
  TGI: > 100 µM
SW-620 colon
  TGI: > 100 µM

## Nc1nc2c(=O)c3ccccc3sc2s1
DU-145 prostate
  TGI: > 100 µM
HOP-62 NSCLC
  TGI: > 100 µM
HOP-92 NSCLC
  TGI: > 100 µM
IGROV1 ovarian
  TGI: > 100 µM
OVCAR-3 ovarian
  TGI: > 100 µM
SF-539 CNS
  TGI: 48.2 µM
SN12C renal
  TGI: > 100 µM
SNB-19 CNS
  TGI: > 100 µM
SNB-75 CNS
  TGI: > 100 µM
SW-620 colon
  TGI: > 100 µM

## Cc1ccc(S(=O)(=O)c2scc(-c3ccccc3)c2C)cc1
DU-145 prostate
  TGI: > 100 µM
HOP-62 NSCLC
  TGI: > 100 µM
HOP-92 NSCLC
  TGI: > 100 µM
IGROV1 ovarian
  TGI: > 100 µM
OVCAR-3 ovarian
  TGI: > 100 µM
SF-539 CNS
  TGI: > 100 µM
SN12C renal
  TGI: > 100 µM
SNB-19 CNS
  TGI: > 100 µM
SNB-75 CNS
  TGI: > 100 µM
SW-620 colon
  TGI: > 100 µM

## O=C(O)[C@H]1[C@@H](C2CCCCC2)O[C@@H](C2CCCCC2)O[C@H]1C(F)(F)F
DU-145 prostate
  TGI: > 100 µM
HOP-62 NSCLC
  TGI: 50.6 µM
HOP-92 NSCLC
  TGI: 61.3 µM
IGROV1 ovarian
  TGI: 35.9 µM
OVCAR-3 ovarian
  TGI: 39 µM
SF-539 CNS
  TGI: > 100 µM
SN12C renal
  TGI: 38.5 µM
SNB-19 CNS
  TGI: 81.3 µM
SNB-75 CNS
  TGI: 38.2 µM
SW-620 colon
  TGI: 52.8 µM

## CCCC(=O)O
DU-145 prostate
  TGI: 13200 µM
HOP-62 NSCLC
  TGI: > 18700 µM
HOP-92 NSCLC
  TGI: 14200 µM
IGROV1 ovarian
  TGI: > 18700 µM
OVCAR-3 ovarian
  TGI: > 18700 µM
SF-539 CNS
  TGI: 16900 µM
SN12C renal
  TGI: > 18700 µM
SNB-19 CNS
  TGI: > 18700 µM
SNB-75 CNS
  TGI: > 18700 µM
SW-620 colon
  TGI: > 18700 µM

## O=C1c2ccccc2C(=O)N1n1c(Cc2ccccc2)n[nH]c1=O
DU-145 prostate
  TGI: > 100 µM
HOP-62 NSCLC
  TGI: > 100 µM
HOP-92 NSCLC
  TGI: > 100 µM
IGROV1 ovarian
  TGI: > 100 µM
OVCAR-3 ovarian
  TGI: > 100 µM
SF-539 CNS
  TGI: > 100 µM
SN12C renal
  TGI: > 100 µM
SNB-19 CNS
  TGI: > 100 µM
SNB-75 CNS
  TGI: > 100 µM
SW-620 colon
  TGI: > 100 µM

## C1CC2=C(C1)[Se]C(=C1Sc3nsnc3S1)[Se]2
DU-145 prostate
  TGI: > 100 µM
HOP-62 NSCLC
  TGI: > 100 µM
HOP-92 NSCLC
  TGI: > 100 µM
IGROV1 ovarian
  TGI: > 100 µM
OVCAR-3 ovarian
  TGI: > 100 µM
SF-539 CNS
  TGI: > 100 µM
SN12C renal
  TGI: > 100 µM
SNB-19 CNS
  TGI: > 100 µM
SNB-75 CNS
  TGI: > 100 µM
SW-620 colon
  TGI: > 100 µM

## CCOC(=O)c1cn(-c2ccccc2)c(=S)n2c1nc1ccccc12
DU-145 prostate
  TGI: > 100 µM
HOP-62 NSCLC
  TGI: > 100 µM
HOP-92 NSCLC
  TGI: 47.7 µM
IGROV1 ovarian
  TGI: > 100 µM
OVCAR-3 ovarian
  TGI: > 100 µM
SF-539 CNS
  TGI: > 100 µM
SN12C renal
  TGI: > 100 µM
SNB-19 CNS
  TGI: > 100 µM
SNB-75 CNS
  TGI: > 100 µM
SW-620 colon
  TGI: > 100 µM
